Results: US9044478B2, “Use of 1,4-bis (3-aminoalkyl) piperazine derivatives in the treatment of neurodegenerative diseases” (INSTITUT NATIONAL DE LA SANTE ET DE LA RECHERCHE MEDICALE, priority 2004, dated 2015)

How the values were obtained:
Aβ1-42 = assay: Aβ 1-42 of the cell supernatant quantified by ELISA (Innotest β-Amyloid1-42); assay type: cell-based, human
Procedure: (§1) The human neuroblastoma cell line SH-SYSY were cultured in Dulbecco's modified Eagle medium supplemented with 10% fetal calf serum, 2 mM L-glutamine, 1 mM non-essential amino-acids, penicillin/streptomycin (Invitrogen SARL, Cergy Pontoise, France) and 200 μg/ml G418 (to select for APP expression) in a 5% CO2 humidified incubator at 37° C. APP751 cDNA with the Swedish mutation (APP^Sw) was subcloned into stably eukaryotic expression vector pcDNA3 (Invitrogen), allowing for a G418 (Invitrogen) selection of stable clones. This APP cDNA was stably transfected into SH-SY5Y cells using the ethyleneimine polymer ExGen 500 (Euromedex) according to the manufacturer's instructions.
(§2) Cells were plated into 6-well plates 24 h before drug exposure. […] After treatment, the medium was collected for the dosage of Aβ1-42. Cells were washed with phosphate-buffered saline and scraped with a policeman rubber in 70 μl of Laemmli sample buffer with protease inhibitors (Complete Mini Roche Molecular Biochemicals, Meylan, France), sonicated and heat-treated for 5 min at 100° C. Protein concentration was established using the PlusOne™ 2-D Quant Kit (Amersham Biosciences, Orsay, France) and samples were kept at −80° C. until used.
The collected medium was spun at 200 g to eliminate the cell debris and Aβ1-42 concentration was determined using the Innotest® β-Amyloid1-42 (Innogenetics, Ghent, Belgium) according to the manufacturer's instructions.
(§3) SKNSH SY5Y transfected cells were grown in the presence of drugs at different concentrations, for example at 1 μM or 5 μM, then cells were harvested and analyzed for their APP-CTF content, using the western-blot approach, while Aβ 1-42 of the cell supernatant Was quantified by ELISA, as described in material and methods. For each compound, normal levels have the arbitrary value of 1. For example, if one APP-CTF is increased 10 times, the value is reported as 10. For Aβ peptide, if decreased of 60%, the value is reported as 0.4 (40% remaining).

APP-CTFs = APP-CTFs content of APPSw-transfected SH-SY5Y cells by western blot; assay type: cell-based, human; parameters: key to β (APP-CTF β stub level, normal level = 1) / α (APP-CTF α stub level, normal level = 1) / γ (APP-CTF γ stub level, normal level = 1) / CTFs (APP-CTFs level, normal level = 1): fold of normal level, normal = 1
Procedure: as §1, §2
The APPCter-C17 antibody is raised against the last 17 amino acids of the human APP sequence (Sergeant, N., David, J. P., Champain, D., Ghestem, A., Wattez, A., and Delacourte, A. (2002) J Neurochem 81, 663-672). This polyclonal antibody detects all APP-CTFs fragments. The tubulin signal was used as a loading control and to normalize the APP-CTFs content. Anti-mouse or anti-rabbit secondary antibodies coupled with horseradish peroxidase were purchased at SIGMA Immunochemicals (Saint Quentin Fallavier, France).
The same quantity of total proteins (20 μg/lane) was loaded on a 16.5% Tris-tricine polyacrylamide gel. Tris-tricine SDS-polyacrylamide gel electrophoresis (PAGE) was performed following the procedure of Schagger and Von Jagow (1987) (Schagger, H., and von Jagow, G. (1987) Anal Biochem 166, 368-379) with a protean II Xi Cell (Bio-Rad, Marnes la coquette, France). Proteins were transferred to nitrocellulose membrane at 2.5 mA/cm^2 per gel using the SemiDry Novablot Transfer system (Amersham Biosciences, Orsay, France), according to the manufacturer's instructions. Proteins were reversibly stained with Ponceau Red to check the quality of the transfer. Membranes were blocked in 25 mM Tris-HCl pH 8.0, 150 mM NaCl, 0.1% Tween-20 (v/v) and 5% (w/v) of skimmed milk for 30 min. Membranes were incubated overnight at 4° C. with appropriate dilutions of the primary antibodies, and incubated for 1 h at room temperature with secondary antibody.
Western blot films were digitized using an UMax scanner calibrated for optical densities (Amersham Biosciences). The Image-MASTER 1D ELITE Software (Amersham Biosciences) was used to quantify the signal, and data were collected using Excel Software (Microsoft, LesUlis, France).
as §3

[1] = test system: endothelial cell monolayer; assay: Toxicity on the endothelial cell monolayer of the BBB model; assay type: cell-based; settings: concentration of 10 μM
Excerpt: (§4) The ability of some compounds to cross the Blood-Brain Barrier (BBB) has been evaluated, using an in vitro model (Cecchelli, R., et al., In vitro model for evaluating drug transport across the blood-brain barriers. Adv Drug Deliv Rev, 1999. 36(2-3): p. 165-178). The described model consists in brain capillary endothelial cells co-cultured with glial cells, thereby closely mimicking the in vivo conditions (Lundquist, S, and M. Renftel, The use of in vitro cell culture models for mechanistic studies and as permeability screens for the blood-brain barrier in the pharmaceutical industry-background and current status in the drug discovery process. Vascul Pharmacol 2002. 38(6): p. 355-64) and developed by CELLIAL Technologies SA.
(§5) The transport of drug was good for example 16 and moderate for example 23. Indeed, the permeability coefficients obtained for example 16 (2.26×10^−3 cm/min) and example 23 (1.81×10^−3 cm/min) indicate that these compounds cross the BBB and are good candidates as CNS drugs.

[2] = test system: brain capillary endothelial cells co-cultured with glial cells; assay: In vitro Blood-Brain Barrier model, drug transport; assay type: in vitro ADME; settings: for Permeability coefficient: in vitro BBB model
Excerpt: as §4, §5

[3] = Solubility in the BBB screening; assay type: physicochemical
Excerpt: as §5

[4] = greater concentration (5 μM) at 24 hours
[5] = low concentration (1 μM) at 6 hours
[6] = 24 h, 1 μM as printed (fourth column)

1,4-bis{3-[N-n-heptyl)amino]propyl}piperazine [Example 10]
Decrease of Aβ peptide levels compared to the control (FIG. 1) (Aβ1-42; [4]): efficiency is confirmed
Decrease of Aβ peptide levels compared to the control (FIG. 1) (Aβ1-42; [5]): efficient to decrease Aβ peptide levels

Clc1ccc(CNCCCN2CCN(CCCNCc3ccc(Cl)cc3)CC2)cc1 [Example 4]
Efficiency for α and γ-APP-CTFs stubs (APP-CTFs): particularly high efficiency
CTFs (APP-CTFs level, normal level = 1) (APP-CTFs; 6 h, 1 μM): 6
α (APP-CTF α stub level, normal level = 1) (APP-CTFs; 6 h, 1 μM): 14
β (APP-CTF β stub level, normal level = 1) (APP-CTFs; 6 h, 1 μM): 0.8
γ (APP-CTF γ stub level, normal level = 1) (APP-CTFs; 6 h, 1 μM): 9.6
CTFs (APP-CTFs level, normal level = 1) (APP-CTFs; 6 h, 5 μM): 5
α (APP-CTF α stub level, normal level = 1) (APP-CTFs; 6 h, 5 μM): 11
β (APP-CTF β stub level, normal level = 1) (APP-CTFs; 6 h, 5 μM): 1.2
γ (APP-CTF γ stub level, normal level = 1) (APP-CTFs; 6 h, 5 μM): 5.7
CTFs (APP-CTFs level, normal level = 1) (APP-CTFs; 24 h, 1 μM (third column)): 3.5
α (APP-CTF α stub level, normal level = 1) (APP-CTFs; 24 h, 1 μM (third column)): 3.5
β (APP-CTF β stub level, normal level = 1) (APP-CTFs; 24 h, 1 μM (third column)): 0.8
γ (APP-CTF γ stub level, normal level = 1) (APP-CTFs; 24 h, 1 μM (third column)): 5.1
CTFs (APP-CTFs level, normal level = 1) (APP-CTFs; [6]): 65
α (APP-CTF α stub level, normal level = 1) (APP-CTFs; [6]): 7
β (APP-CTF β stub level, normal level = 1) (APP-CTFs; [6]): 5
γ (APP-CTF γ stub level, normal level = 1) (APP-CTFs; [6]): 14.4
Efficiency for Aβ peptide (FIG. 1) (Aβ1-42): particularly high efficiency
Aβ (Aβ peptide level, normal level = 1; fraction remaining) (Aβ1-42; 6 h, 1 μM): 0.2
Aβ (Aβ peptide level, normal level = 1; fraction remaining) (Aβ1-42; 6 h, 5 μM): 0
Aβ (Aβ peptide level, normal level = 1; fraction remaining) (Aβ1-42; 24 h, 1 μM (third column)): 1
Aβ (Aβ peptide level, normal level = 1; fraction remaining) (Aβ1-42; [6]): 0.1
Decrease of Aβ peptide levels compared to the control (FIG. 1) (Aβ1-42; [4]): efficiency is confirmed
Decrease of Aβ peptide levels compared to the control (FIG. 1) (Aβ1-42; [5]): efficient to decrease Aβ peptide levels

N^4-(3-{4-[3(diisobutylamino)propyl]piperizano}propyl)-benzimidazol-2-amine [Example 16]
Toxicity on the endothelial cell monolayer [1]: not toxic
Transport of drug across the in vitro BBB [2]: good
Diffusion across the filter membrane coated with collagen and without cells [2]: able to diffuse across the filter membrane
Permeability coefficient [2]: 37.7 ×10⁻⁶ cm/s
Solubility [3]: soluble

N^4-[3-(4-{3-[diisobutylamino]propyl}piperizano)propyl]-4-benzyloxyamine [Example 23]
Toxicity on the endothelial cell monolayer [1]: not toxic
Transport of drug across the in vitro BBB [2]: moderate
Diffusion across the filter membrane coated with collagen and without cells [2]: able to diffuse across the filter membrane
Permeability coefficient [2]: 30.2 ×10⁻⁶ cm/s
Solubility [3]: soluble
